Reference: patent US9862730B2, “Imidazothiadiazole derivatives as protease activated receptor 4 (PAR4) inhibitors for treating platelet aggregation” (BRISTOL-MYERS SQUIBB COMPANY, priority 2012, dated 2018)
Like-named read-outs stand apart in the source and are kept apart here.

Columns and labels:
[1] = test system: electrolytic injury-induced carotid artery thrombosis; assay: Cynomolgus monkey electrolytic injury-induced carotid artery thrombosis model; format: in vivo; details: oral, dose response
Text: The efficacy of the PAR4 antagonists of the present invention in preventing thrombosis can also be measured in a variety of in vivo assays. Exemplary mammals that can provide models of thrombosis and hemostasis to test the effectiveness of the PAR4 antagonists of the present invention as antithrombotic agents include, but are not limited to, guinea pigs and primates. Relevant efficacy models include, but are not limited to, electrolytic injury-induced carotid artery thrombosis, FeCl3-induced carotid artery thrombosis and arteriovenous-shunt thrombosis. […]
On the day of the study, compounds or vehicles were administered orally at 1 to 2 hours before the experiment. […] Blood pressure and heart rate were monitored to maintain normal vital signs.
Carotid blood flow was measured with an appropriately sized TRANSONIC® flow probe and a TRANSONIC® perivascular flowmeter (TS420 Model, Transonic Systems Inc., Ithaca, N.Y.). It was continuously recorded over a 90-min period to monitor thrombosis-induced occlusion. Integrated carotid blood flow was measured by the area under the flow-time curve. It was expressed as percent of total control carotid blood flow, which would result if control blood flow had been maintained continuously for 90 min. […]

human washed platelets = assay: Alpha-thrombin induced platelet aggregation assay; format: cell-based; details: for IC50: Homo sapiens, Platelet, 0.1 h, AUC at 6 min, read-out: IC50 for the inhibition of platelet aggregation
Procedure: Example D is an alpha-thrombin-induced platelet aggregation assay. Alpha-thrombin activates both PAR1 and PAR4.
Human blood was collected in ACD (85 mM tri-sodium citrate, 78 mM citric acid, 110 mM D-glucose, pH 4.4) at a ratio of 1.4 ml per 10 ml blood. PRP was isolated by centrifugation at 170 g for 14 minutes and platelets were further pelleted by centrifugation at 1300 g for 6 minutes. Platelets were washed once with 10 ml ACD containing 1 mg/ml bovine serum albumin. Platelets were resuspended at ˜2.5×10^8/ml in Tyrode's Buffer (137 mM NaCl, 2 mM KCl, 1.0 mM MgCl2, 1 mM CaCl2, 5 mM glucose, 20 mM HEPES pH 7.4).
The ability of PAR4 antagonist to inhibit platelet aggregation induced by alpha-thrombin was tested using human washed platelets. […] Aggregation was initiated by addition of 2.5 or 5 nM alpha-thrombin (Haematologic Technologies, Essex Junction, Vt.) to 240 μl of washed platelets at stirring speed of 1200 rpm. […] IC50 was calculated using vehicle control as 0% inhibition.

PAR4 = PAR4 (Homo sapiens (Human), UniProt Q96RI0); assay: FLIPR assay in PAR4-expressing HEK293 cells (PAR4 antagonist activity, calcium mobilization); format: cell-based; details: FLIPR assay as described in Example A
Outline: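 Calcium-flux antagonist readout: compounds preincubated 30 min at room temperature with PAR4-transfected HEK293 cells in HBSS with 10 mM HEPES (0.67% DMSO final), then agonist peptide added. Agonist activity checked on compound addition; cells carry endogenous PAR1.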

[2] = test system: platelet aggregation in human PRP; assay: Tissue factor-induced platelet aggregation assay; format: cell-based; details: tissue factor and CaCl2
Text: Example E is a tissue factor-induced platelet aggregation assay. The conditions in this assay mimic the physiological events during thrombus formation. In this assay, platelet aggregation in human PRP was initiated by the addition of tissue factor and CaCl2. Tissue factor, the initiator of the extrinsic coagulation cascade, is highly elevated in human atherosclerotic plaque. Exposure of blood to tissue factor at the atherosclerotic site triggers a robust generation of thrombin and induces the formation of obstructive thrombi.
The platelet rich plasma was isolated by centrifugation at 170 g for 14 minutes.
The ability of PAR1 or PAR4 antagonist to inhibit platelet aggregation induced by endogenous thrombin was tested in a tissue factor driven aggregation assay. The compounds were pre-incubated with PRP for 2 min (FIGS. 3 and 4). Aggregation is initiated by addition of CaCl2 and recombinant human tissue factor, which results in the generation of thrombin through activation of the coagulation pathway in the plasma. Anticoagulant agents such as corn trypsin inhibitor (Haematologic Technologies, Essex Junction, Vt.) at 50 μg/ml and PEFABLOC® FG (Centerchem, Norwalk, Conn.) are also added to the sample to prevent fibrin clot formation during the time of the study. Platelet aggregation is monitored using standard instrumentation including optical aggregometer or impedance aggregometer.

[3] = ACS patients, phase III; cited from earlier work

Chain of PAR4 (Q96RI0 18-385): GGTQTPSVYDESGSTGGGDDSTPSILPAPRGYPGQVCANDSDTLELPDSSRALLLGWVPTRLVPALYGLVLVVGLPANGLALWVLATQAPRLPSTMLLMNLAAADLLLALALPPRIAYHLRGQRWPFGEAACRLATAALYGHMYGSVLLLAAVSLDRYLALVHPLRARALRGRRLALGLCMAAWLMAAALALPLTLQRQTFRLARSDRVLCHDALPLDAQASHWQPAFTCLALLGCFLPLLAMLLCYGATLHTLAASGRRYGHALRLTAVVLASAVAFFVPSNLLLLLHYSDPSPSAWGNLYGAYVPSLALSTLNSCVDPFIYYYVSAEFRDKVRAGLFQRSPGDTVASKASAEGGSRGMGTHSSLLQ

In the case of `COc1cc(OCc2cccc(OCc3ccccc3)c2)c2cc(-c3cn4nc(OC)sc4n3)oc2c1` [Example 205, 6-(4-((3-(Benzyloxy)benzyl)oxy)-6-methoxybenzofuran-2-yl)-2-methoxyimidazo[2,1-b][1,3,4]thiadiazole], the “antithrombotic efficacy / inhibition of thrombus formation (FIG. 5)” value [1] is reported as “demonstrating the in vivo antithrombotic efficacy”.
In the case of `COc1cc(OCc2ccccc2)c2cc(-c3cn4nc(OC)sc4n3)oc2c1` [Example 203, 6-(4-(Benzyloxy)-6-methoxybenzofuran-2-yl)-2-methoxyimidazo[2,1-b][1,3,4]thiadiazole], the “inhibition of alpha-thrombin-induced platelet aggregation (FIG. 2)” value (human washed platelets; 5 nM alpha-thrombin) is reported as “dose-dependent inhibition”, the IC50 (human washed platelets; 5 nM alpha-thrombin, n=3) is reported as 6.9 ± 0.3 µM and the IC50 (human washed platelets; […] alpha-thrombin, n=4) is reported as 1.1 ± 0.9 µM.
With `COc1cc(OC)c2cc(-c3cn4nc(OC)sc4n3)oc2c1` [Example 73] the IC50 (PAR4) was 0.00099 µM and the “inhibition of tissue factor-induced platelet aggregation (FIGS. 3 and 4)” value [2] was “effective inhibition”.
For `CCOC(=O)N[C@@H]1CC[C@@H]2[C@@H](C1)C[C@H]1C(=O)O[C@H](C)[C@H]1[C@H]2/C=C/c1ccc(-c2cccc(F)c2)cn1` [vorapaxar], the cardiovascular events [3] is listed as “did not significantly reduce cardiovascular events” and the “risk of major bleeding” value [3] is listed as “significantly increased the risk of major bleeding”.
